Legend:
cocklebur = assay: Test B pre/postemergence cocklebur; format: in vivo, Xanthium strumarium
Procedure, shortened: (§1)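 Response is a visual 0-to-10 score relative to untreated plants, where 0 means no effect and 10 means complete control, taken twelve to sixteen days after application. Treatments went onto soil at planting and onto foliage of 1- to 4-leaf plants, using a surfactant-containing non-phytotoxic solvent.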

corn = assay: Test B pre/postemergence corn; format: in vivo, Zea mays
Procedure, shortened: as §1

crabgrass = assay: Test B pre/postemergence crabgrass; format: in vivo, Digitaria sanguinalis
Procedure, shortened: as §1

giant foxtail = assay: Test B pre/postemergence giant foxtail; format: in vivo, Setaria faberii
Procedure, shortened: as §1

morningglory = assay: Test B pre/postemergence morningglory; format: in vivo, Ipomoea hederacea
Procedure, shortened: as §1

pigweed = assay: Test B pre/postemergence pigweed; format: in vivo, Amaranthus retroflexus
Procedure, shortened: as §1

rape = assay: Test B pre/postemergence rape; format: in vivo, Brassica napus
Procedure, shortened: as §1

soybean = assay: Test B pre/postemergence soybean; format: in vivo, Glycine max
Procedure, shortened: as §1

sugar beet = assay: Test B pre/postemergence sugar beet; format: in vivo, Beta vulgaris
Procedure, shortened: as §1

velvetleaf = assay: Test B pre/postemergence velvetleaf; format: in vivo, Abutilon theophrasti
Procedure, shortened: as §1

wheat = assay: Test B pre/postemergence wheat; format: in vivo, Triticum aestivum
Procedure, shortened: as §1

wild oat = assay: Test B pre/postemergence wild oat; format: in vivo, Avena fatua
Procedure, shortened: as §1

purple nutsedge = assay: Test B pre/postemergence purple nutsedge; format: in vivo, Cyperus rotundus
Procedure, shortened: as §1

rice = assay: Test B flood test rice; format: in vivo, Oryza sativa
Procedure, shortened: (§2)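 Each value is a visual injury score relative to controls, with 10 meaning complete control and 0 no effect. Evaluation took place twelve to sixteen days after the 2-leaf-stage plants were treated and kept in the greenhouse.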

duck salad = assay: Test B flood test duck salad; format: in vivo, Heteranthera limosa
Procedure, shortened: as §2

bamyardgrass = assay: Test B flood test barnyardgrass; format: in vivo, Echinochloa crus-galli
Procedure, shortened: as §2

[1] = Preemergence, Rate 62 g/ha, scale of 0 to 10 where 0 is no effect and 10 is complete control
[2] = Preemergence, Rate 250 g/ha, scale of 0 to 10 where 0 is no effect and 10 is complete control
[3] = Preemergence, Rate 500 g/ha, scale of 0 to 10 where 0 is no effect and 10 is complete control
[4] = Rate 62 g/ha, Postemergence, scale of 0 to 10 where 0 is no effect and 10 is complete control
[5] = Rate 125 g/ha, Postemergence, scale 0 to 10
[6] = Rate 125 g/ha, Preemergence, scale of 0 to 10 where 0 is no effect and 10 is complete control
[7] = Rate 500 g/ha, Postemergence, scale 0 to 10, 0 no effect, 10 complete control
[8] = Rate 62 g/ha, headed Pre-emergence (flood test species), scale 0 to 10 (0 no effect, 10 complete control)
[9] = Rate 125 g/ha, Pre-emergence, flood test species, scale 0 to 10 where 0 is no effect and 10 is complete control
[10] = Rate 250 g/ha, Pre-emergence, flood-test species, scale 0 to 10, 0 is no effect, 10 is complete control
[11] = Rate 500 g/ha, Pre-emergence, flood test species, scale 0 to 10 (0 no effect, 10 complete control)

SMILES: Cc1cc(C)c(-n2c(=O)on(C(=O)N(c3ccc(F)cc3)C(C)C)c2=O)c(Br)c1 [Compound 224]
- Cocklebur plant response rating (cocklebur; [1]): 0
- Cocklebur plant response rating (cocklebur; [2]): 0
- Plant response rating, Cocklebur (cocklebur; [3]): 0
- Cocklebur plant response rating (cocklebur; [4]): 0
- Cocklebur plant response rating (cocklebur; [5]): 0
- Cocklebur plant response rating (cocklebur; [6]): 0
- Plant response rating (0 to 10; 0 is no effect, 10 is complete control), Cocklebur (cocklebur; Rate 250 g/ha, Postemergence): 0
- Cocklebur plant response rating (cocklebur; [7]): 1
- Corn plant response rating (corn; [1]): 0
- Corn plant response rating (corn; [2]): 0
- Plant response rating, Corn (corn; [3]): 0
- Corn plant response rating (corn; [4]): 0
- Corn plant response rating (corn; [5]): 0
- Corn plant response rating (corn; [6]): 0
- Plant response rating (0 to 10; 0 is no effect, 10 is complete control), Corn (corn; Rate 250 g/ha, Postemergence): 0
- Corn plant response rating (corn; [7]): 0
- Crabgrass plant response rating (crabgrass; [1]): 2
- Crabgrass plant response rating (crabgrass; [2]): 9
- Plant response rating, Crabgrass (crabgrass; [3]): 10
- Crabgrass plant response rating (crabgrass; [4]): 0
- Crabgrass plant response rating (crabgrass; [5]): 0
- Crabgrass plant response rating (crabgrass; [6]): 5
- Plant response rating (0 to 10; 0 is no effect, 10 is complete control), Crabgrass (crabgrass; Rate 250 g/ha, Postemergence): 3
- Crabgrass plant response rating (crabgrass; [7]): 0
- Giant foxtail plant response rating (giant foxtail; [1]): 3
- Giant foxtail plant response rating (giant foxtail; [2]): 9
- Plant response rating, Giant foxtail (giant foxtail; [3]): 10
- Giant foxtail plant response rating (giant foxtail; [4]): 0
- Giant foxtail plant response rating (giant foxtail; [5]): 0
- Giant foxtail plant response rating (giant foxtail; [6]): 7
- Plant response rating (0 to 10; 0 is no effect, 10 is complete control), Giant foxtail (giant foxtail; Rate 250 g/ha, Postemergence): 4
- Giant foxtail plant response rating (giant foxtail; [7]): 0
- Morningglory plant response rating (morningglory; [1]): 0
- Morningglory plant response rating (morningglory; [2]): 0
- Plant response rating, Morningglory (morningglory; [3]): 0
- Morningglory plant response rating (morningglory; [4]): 2
- Morningglory plant response rating (morningglory; [5]): 2
- Morningglory plant response rating (morningglory; [6]): 0
- Plant response rating (0 to 10; 0 is no effect, 10 is complete control), Morningglory (morningglory; Rate 250 g/ha, Postemergence): 5
- Morningglory plant response rating (morningglory; [7]): 6
- Redroot pigweed plant response rating (pigweed; [1]): 0
- Redroot pigweed plant response rating (pigweed; [2]): 0
- Plant response rating, Redroot pigweed (pigweed; [3]): 4
- Redroot pigweed plant response rating (pigweed; [4]): 0
- Redroot pigweed plant response rating (pigweed; [5]): 2
- Redroot pigweed plant response rating (pigweed; [6]): 0
- Plant response rating (0 to 10; 0 is no effect, 10 is complete control), Redroot pigweed (pigweed; Rate 250 g/ha, Postemergence): 4
- Redroot pigweed plant response rating (pigweed; [7]): 7
- Rape plant response rating (rape; [1]): 0
- Rape plant response rating (rape; [2]): 0
- Plant response rating, Rape (rape; [3]): 0
- Rape plant response rating (rape; [4]): 0
- Rape plant response rating (rape; [5]): 0
- Rape plant response rating (rape; [6]): 0
- Plant response rating (0 to 10; 0 is no effect, 10 is complete control), Rape (rape; Rate 250 g/ha, Postemergence): 0
- Rape plant response rating (rape; [7]): 0
- Soybean plant response rating (soybean; [1]): 0
- Soybean plant response rating (soybean; [2]): 0
- Plant response rating, Soybean (soybean; [3]): 0
- Soybean plant response rating (soybean; [4]): 2
- Soybean plant response rating (soybean; [5]): 3
- Soybean plant response rating (soybean; [6]): 0
- Plant response rating (0 to 10; 0 is no effect, 10 is complete control), Soybean (soybean; Rate 250 g/ha, Postemergence): 4
- Soybean plant response rating (soybean; [7]): 2
- Sugarbeets plant response rating (sugar beet; [1]): 0
- Sugarbeets plant response rating (sugar beet; [2]): 0
- Plant response rating, Sugarbeets (sugar beet; [3]): 0
- Sugarbeets plant response rating (sugar beet; [4]): 1
- Sugarbeets plant response rating (sugar beet; [5]): 2
- Sugarbeets plant response rating (sugar beet; [6]): 0
- Plant response rating (0 to 10; 0 is no effect, 10 is complete control), Sugarbeets (sugar beet; Rate 250 g/ha, Postemergence): 4
- Sugarbeets plant response rating (sugar beet; [7]): 4
- Velvetleaf plant response rating (velvetleaf; [1]): 0
- Velvetleaf plant response rating (velvetleaf; [2]): 0
- Plant response rating, Velvetleaf (velvetleaf; [3]): 0
- Velvetleaf plant response rating (velvetleaf; [4]): 0
- Velvetleaf plant response rating (velvetleaf; [5]): 0
- Velvetleaf plant response rating (velvetleaf; [6]): 0
- Plant response rating (0 to 10; 0 is no effect, 10 is complete control), Velvetleaf (velvetleaf; Rate 250 g/ha, Postemergence): 0
- Velvetleaf plant response rating (velvetleaf; [7]): 4
- Wheat plant response rating (wheat; [1]): 0
- Wheat plant response rating (wheat; [2]): 0
- Plant response rating, Wheat (wheat; [3]): 0
- Wheat plant response rating (wheat; [4]): 0
- Wheat plant response rating (wheat; [5]): 0
- Wheat plant response rating (wheat; [6]): 0
- Plant response rating (0 to 10; 0 is no effect, 10 is complete control), Wheat (wheat; Rate 250 g/ha, Postemergence): 0
- Wheat plant response rating (wheat; [7]): 0
- Wild oats plant response rating (wild oat; [1]): 0
- Wild oats plant response rating (wild oat; [2]): 0
- Plant response rating, Wild oats (wild oat; [3]): 2
- Wild oats plant response rating (wild oat; [4]): 0
- Wild oats plant response rating (wild oat; [5]): 0
- Wild oats plant response rating (wild oat; [6]): 0
- Plant response rating (0 to 10; 0 is no effect, 10 is complete control), Wild oats (wild oat; Rate 250 g/ha, Postemergence): 0
- Wild oats plant response rating (wild oat; [7]): 0
- Nutsedge plant response rating (purple nutsedge; [1]): 0
- Nutsedge plant response rating (purple nutsedge; [4]): 0
- Nutsedge plant response rating (purple nutsedge; [5]): 0
- Plant response rating (0 to 10; 0 is no effect, 10 is complete control), Nutsedge (purple nutsedge; Rate 250 g/ha, Postemergence): 0
- Nutsedge plant response rating (purple nutsedge; [7]): 0
- Rice plant response rating (rice; [8]): 0
- Rice plant response rating (rice; [9]): 0
- Rice plant response rating (rice; [10]): 0
- Rice plant response rating (rice; [11]): 0
- Ducksalad plant response rating (duck salad; [8]): 0
- Ducksalad plant response rating (duck salad; [9]): 0
- Ducksalad plant response rating (duck salad; [10]): 0
- Ducksalad plant response rating (duck salad; [11]): 0
- Barnyardgrass plant response rating (bamyardgrass; [8]): 0
- Barnyardgrass plant response rating (bamyardgrass; [9]): 0
- Barnyardgrass plant response rating (bamyardgrass; [10]): 0
- Barnyardgrass plant response rating (bamyardgrass; [11]): 0
